Reference: patent EP4653450A1 (priority 2023, dated 2024)
pEC50, pIC50: −log10 of the molar value. Where “and” joins values, the source holds several entries; their conditions need not be identical. Equal values may be shown once.

How the values were obtained:
SARS-CoV-2 Delta strain = settings: mouse, in vivo
[1] = tested on: 47 safety-related targets
Text: For 78 tests related to 47 safe targets, the experimental methods used included: cAMP assay, calcium flux assay, hormone nuclear receptor assay, kinase binding assay, enzyme activity assay, neurotransmitter transporter assay, ion channel assay, and transporter assay.

[2] = cynomolgus monkey, in vivo
[3] = tested on: SARS-CoV-2 Delta strain (B.1.617.2); test: microbe, parasite or virus in culture; settings: Severe acute respiratory syndrome coronavirus 2, Vero C1008
[4] = tested on: SARS-CoV-2 Omicron strain (B.1.1.529); test: microbe, parasite or virus in culture; settings: Severe acute respiratory syndrome coronavirus 2, Vero C1008

Experimental for human plasma protein: Human plasma was purchased from BioIVT, anticoagulated with EDTA K2, and stored at -80 °C. The 96-well equilibrium dialysis plate was purchased from HTDialysis LLC. The equilibrium dialysis membrane was purchased from Gales Ferry.
The alkaline solution was titrated with the acidic solution until the pH value was 7.4, and the buffer could be stored at 4 °C for 7 days.
The dialysis membrane was soaked in ultrapure water for 60 min to separate the membrane into two pieces, then soaked with 20% ethanol for 20 min, and finally soaked with dialysis buffer for 20 min.
The frozen plasma was quickly thawed at room temperature.
The plasma was then centrifuged at 4 °C for 10 min at a centrifugal force of 3,220 g to remove clots, and the supernatant was collected into a new centrifuge tube. The pH of the plasma was measured and recorded.
A 10 mM DMSO stock solution of the test substance was prepared. 2 µL of the stock solution (10 mM) was diluted with 98 µL of DMSO to give a working solution (200 µM). […]
50 µL of blank plasma was added to the phosphate-buffered saline sample. […] The mixture was well mixed, and the sample was analyzed using liquid chromatography-mass spectrometry.
All calculations were performed by Microsoft Excel. The peak areas of the test substance on the buffer side and the plasma side were determined. […]

With CC(C)(C)C(NC(=O)C(F)(F)F)C(=O)N1CC2(CC1C(=O)NC(C#N)CC1CCNC1=O)SCCS2 (stereo not shown) [Compound of formula (I)] the “Brain tissue (log10 copies/mg) Day 2” value (SARS-CoV-2 Delta strain) was 1.04±0.24 log10 copies/mg and 0.77±0.20 log10 copies/mg, the body weight (SARS-CoV-2 Delta strain) was “not significantly reduced” and the “effect on viral titer in the lungs” value (SARS-CoV-2 Delta strain) was “sustained inhibitory effect”. For the same compound, the “histopathological analysis of the lungs” value (SARS-CoV-2 Delta strain) was “significantly ameliorated lung damage”, the “reduction of viral copy number in the lungs” value (SARS-CoV-2 Delta strain) was 2.4 log10 copies/g and the “reduction of viral titer in the lungs (plaque assay)” value (SARS-CoV-2 Delta strain) was “more than 3 log10 PFU/g”. For the same compound, the “viral titer in the lungs (plaque assay)” value (SARS-CoV-2 Delta strain) was “the titer was not detected”, the “virus titer in the brains” value (SARS-CoV-2 Delta strain) was “no virus titer was detected” and the pEC50 [1] was < 4.00. For the same compound, the “Free rate (F%) Replicate 1” value (human plasma protein) was 48.71%, the “Free rate (F%) Replicate 2” value (human plasma protein) was 44.55% and the arrhythmia [2] was “no test sample-related arrhythmia was observed”. For the same compound, the cardiovascular system changes [2] was “no test sample-related cardiovascular system changes were observed”, the “changes in ECG parameters or blood pressure” value [2] was “no test sample-related changes in ECG parameters or blood pressure were observed” and the pIC50 [3] was 7.40. It also gave a pIC50 [4] of 6.92.
